Here are results for six compounds from ChEMBL document CHEMBL3875216, “Synthesis of antimicrobial glucosamides as bacterial quorum sensing mechanism inhibitors” (Bioorg Med Chem, 2017).

Each structure is given as a SMILES string.

Data set [1] concerns Pseudomonas aeruginosa. Nature of the data set: Inhibition of LasR-dependent quorum sensing activity in Pseudomonas aeruginosa MH602 harboring GFP-fused […] LasB promoter assessed as inhibition of 3-oxo-dodecanoyl HSL-induced GFP expression at 2 mM measured after 24 hrs by fluorescence assay relative to control.
Data set [2] concerns Pseudomonas aeruginosa. Description: Inhibition of LasR-dependent quorum sensing activity in Pseudomonas aeruginosa MH602 harboring GFP-fused […] LasB promoter assessed as inhibition of 3-oxo-dodecanoyl HSL-induced GFP expression at 1 mM measured after 8 hrs by fluorescence assay relative to control.
In data set [3] the test system is Pseudomonas aeruginosa. Nature of the data set: Growth inhibition of Pseudomonas aeruginosa MH602 at 1 mM after 24 hrs relative to control. To be noted: MH602, 24 h, read-out: GI.
Data set [4] concerns Pseudomonas aeruginosa. Description: Growth inhibition of Pseudomonas aeruginosa MH602 at 500 uM after 8 hrs relative to control. Conditions: MH602, 8 h, read-out: GI.
The subject of data set [5] is Escherichia coli. Nature of the data set: Growth inhibition of Escherichia coli MT102 at 1 mM after 8 hrs relative to control. To be noted: MT102, 8 h, read-out: GI.
The subject of data set [6] is Pseudomonas aeruginosa. Nature of the data set: Growth inhibition of Pseudomonas aeruginosa MH602 at 2 mM after 8 hrs relative to control. To be noted: MH602, 8 h, read-out: GI.
Data set [7] relates to Escherichia coli. Description: Inhibition of LuxR-dependent quorum sensing activity in Escherichia coli MT102 harboring pJBA132 assessed as inhibition of OHHL-induced GFP expression at 1 mM measured after 24 hrs by fluorescence assay relative to control.
For data set [8], the system named is Escherichia coli. Description: Growth inhibition of Escherichia coli MT102 at 2 mM after 8 hrs relative to control. To be noted: MT102, 8 h, read-out: GI.
Data set [9] has as its system Pseudomonas aeruginosa. Nature of the data set: Growth inhibition of Pseudomonas aeruginosa MH602 at 500 uM after 24 hrs relative to control. Conditions: MH602, 24 h, read-out: GI.
The test system of data set [10] is Escherichia coli. Nature of the data set: Growth inhibition of Escherichia coli MT102 at 500 uM after 8 hrs relative to control. To be noted: MT102, 8 h, read-out: GI.
Data set [11] concerns Pseudomonas aeruginosa. Nature of the data set: Growth inhibition of Pseudomonas aeruginosa MH602 at 2 mM after 24 hrs relative to control. To be noted: MH602, 24 h, read-out: GI.
Data set [12] relates to Escherichia coli. Nature of the data set: Growth inhibition of Escherichia coli MT102 at 2 mM after 24 hrs relative to control. To be noted: MT102, 24 h, read-out: GI.
Data set [13] deals with Escherichia coli. Nature of the data set: Inhibition of LuxR-dependent quorum sensing activity in Escherichia coli MT102 harboring pJBA132 assessed as inhibition of OHHL-induced GFP expression at 2 mM measured after 8 hrs by fluorescence assay relative to control.
Data set [14] concerns Escherichia coli. Nature of the data set: Growth inhibition of Escherichia coli MT102 at 500 uM after 24 hrs relative to control. To be noted: MT102, 24 h, read-out: GI.
In data set [15] the test system is Pseudomonas aeruginosa. Nature of the data set: Growth inhibition of Pseudomonas aeruginosa MH602 at 1 mM after 8 hrs relative to control. To be noted: MH602, 8 h, read-out: GI.
Data set [16] has as its system Escherichia coli. Nature of the data set: Growth inhibition of Escherichia coli MT102 at 1 mM after 24 hrs relative to control. Conditions: MT102, 24 h, read-out: GI.
For data set [17], the system named is Escherichia coli. Nature of the data set: Inhibition of LuxR-dependent quorum sensing activity in Escherichia coli MT102 harboring pJBA132 assessed as inhibition of OHHL-induced GFP expression at 2 mM measured after 24 hrs by fluorescence assay relative to control.
The subject of data set [18] is Pseudomonas aeruginosa PA14. Nature of the data set: Inhibition of quorum sensing-regulated biofilm formation in Pseudomonas aeruginosa PA14 at 2 mM after overnight incubation by crystal violet staining based assay relative to control.
Data set [19] deals with Pseudomonas aeruginosa. Nature of the data set: Inhibition of LasR-dependent quorum sensing activity in Pseudomonas aeruginosa MH602 harboring GFP-fused […] LasB promoter assessed as inhibition of 3-oxo-dodecanoyl HSL-induced GFP expression at 500 uM measured after 8 hrs by fluorescence assay relative to control.
Data set [20] relates to Pseudomonas aeruginosa. Nature of the data set: Growth inhibition of Pseudomonas aeruginosa PA14 at 2 mM after 24 hrs relative to control. Conditions: 2000 µM.
Data set [21] deals with Pseudomonas aeruginosa. Description: Inhibition of LasR-dependent quorum sensing activity in Pseudomonas aeruginosa MH602 harboring GFP-fused […] LasB promoter assessed as inhibition of 3-oxo-dodecanoyl HSL-induced GFP expression at 1 mM measured after 24 hrs by fluorescence assay relative to control.
In data set [22] the test system is Pseudomonas aeruginosa. Description: Inhibition of LasR-dependent quorum sensing activity in Pseudomonas aeruginosa MH602 harboring GFP-fused […] LasB promoter assessed as inhibition of 3-oxo-dodecanoyl HSL-induced GFP expression at 2 mM measured after 8 hrs by fluorescence assay relative to control.
Data set [23] deals with Escherichia coli. Nature of the data set: Inhibition of LuxR-dependent quorum sensing activity in Escherichia coli MT102 harboring pJBA132 assessed as inhibition of OHHL-induced GFP expression at 500 uM measured after 8 hrs by fluorescence assay relative to control.
Data set [24] deals with Escherichia coli. Nature of the data set: Inhibition of LuxR-dependent quorum sensing activity in Escherichia coli MT102 harboring pJBA132 assessed as inhibition of OHHL-induced GFP expression at 1 mM measured after 8 hrs by fluorescence assay relative to control.
The test system of data set [25] is Pseudomonas aeruginosa. Description: Inhibition of LasR-dependent quorum sensing activity in Pseudomonas aeruginosa MH602 harboring GFP-fused […] LasB promoter assessed as inhibition of 3-oxo-dodecanoyl HSL-induced GFP expression at 500 uM measured after 24 hrs by fluorescence assay relative to control.
For data set [26], the system named is Pseudomonas aeruginosa PA14. Nature of the data set: Inhibition of quorum sensing-regulated pyocyanin production in Pseudomonas aeruginosa PA14 at 2 mM after 24 hrs relative to control.

`CCCCCCCCCC(=O)N[C@H]1[C@H](OC(C)=O)O[C@H](COC(C)=O)[C@@H](OC(C)=O)[C@@H]1OC(C)=O`: the inhibition in data set [1] stood at 17.2%; in data set [2], 7%; in data set [7], 5.1%; in data set [13] it was 48.1%; in data set [17] it was 35.5%; in [18], 46.9%. For the same compound, the inhibition worked out at 10.2% in data set [19] and 7.8% in data set [21]. In addition, the inhibition at 1000 µM was 1.2% in data set [3], 0% in data set [5], 7.8% in data set [15] and 12.6% in [16]. Moreover, the inhibition at 500 µM in data set [4] was 0%; in data set [9], 0%; in data set [10], 12.8%; in data set [14] it was 11.1%. The inhibition at 2000 µM in data set [6] was determined as 10.2%; in data set [8] it was 30.6%; in [11], 0%; in data set [12], 15.9%. Further, in data set [20], the “growth inhibition (GI)” value is on record as “Non-Toxic”.

For the compound `CC(=O)OC[C@H]1O[C@@H](OC(C)=O)[C@H](NC(=O)Cc2ccc(C(F)(F)F)cc2)[C@@H](OC(C)=O)[C@@H]1OC(C)=O`, the inhibition in data set [1] was 7%; in data set [2], 9.2%; in [22] it was 20.1%; in data set [7] it was 27.2%; in [23], 8.6%; in data set [13], 11.3%. The inhibition came out at 13% in [24]; 61.7% in data set [17]; 5.9% in data set [25]; 19.3% in data set [18]; 2.5% in data set [19]; 5.6% in [21]. Further, the inhibition at 1000 µM in data set [3] stood at 0%; in data set [5], 0%; in [15] it was 0%; in data set [16], 1.1%. Further, the inhibition at 500 µM in data set [4] is 0%; in [9], 0%; in data set [10], 0%; in data set [14], 0.9%. The inhibition at 2000 µM in [6], in [8], in [11] and in [12] was 0% each time. For the same compound, in [20], the “growth inhibition (GI)” value is given as “Non-Toxic”.

With `CCCCCC(=O)N[C@H]1[C@H](OC(C)=O)O[C@H](COC(C)=O)[C@@H](OC(C)=O)[C@@H]1OC(C)=O`, the inhibition in [1] was 22.8%; in data set [2], 10.5%; in [22] it was 4%; in data set [7] it was 6.6%; in [13], 11.6%; in data set [24], 14.6%. Besides, the inhibition in [17] came out at 17.2%; in data set [25], 3.1%; in data set [19], 3.5%; in data set [21], 2.6%. The inhibition at 1000 µM in data set [3] stood at 4.5%; in [5], 16.9%; in data set [15], 2.7%; in data set [16] it was 10.8%. For the same compound, the inhibition at 500 µM in data set [4] stood at 3%; in [9] it was 0%; in [10], 20.5%; in data set [14], 2.2%. The inhibition at 2000 µM in data set [6] came to 9.5%; in [8] it was 30.3%; in data set [11], 6.8%; in data set [12], 15.2%. Besides, the “growth inhibition (GI)” value in [20] was “Non-Toxic”.

With `CCCCCC(=O)CC(=O)N[C@H]1[C@H](OC(C)=O)O[C@H](COC(C)=O)[C@@H](OC(C)=O)[C@@H]1OC(C)=O`, the inhibition worked out at 2.5% in [1]; 8.9% in data set [2]; 18.9% in data set [22]; 1.9% in data set [26]; 7.7% in data set [23]; 7.9% in data set [13]. The inhibition was found to be 2.1% in data set [24], 3.3% in data set [25], 19.5% in data set [18] and 4.9% in data set [19]. For the same compound, the inhibition at 1000 µM in [3] came to 0%; in [5], 2.3%; in [15], 0%; in data set [16], 13.2%. Besides, the inhibition at 500 µM in data set [4] turned out to be 0%; in data set [9] it was 4.2%; in data set [10] it was 0%; in data set [14], 2.3%. Besides, the inhibition at 2000 µM stood at 0% in [6], 9.2% in data set [8], 0% in data set [11] and 20.8% in data set [12]. In data set [20], the “growth inhibition (GI)” value is “Non-Toxic”.

Consider `O=C(Cc1ccc(Br)cc1)N[C@@H]1[C@@H](O)[C@H](O)[C@@H](CO)O[C@H]1O`, for which the inhibition in data set [2] was 14.3%; in data set [22], 15.3%; in data set [7], 4.6%; in data set [26], 8.6%; in data set [23] it was 11.9%; in data set [13], 15.2%. Further, the inhibition in data set [24] turned out to be 6.5%; in data set [17] it was 1.1%; in [25], 2.4%; in data set [18] it was 17.3%; in data set [19], 6.6%. The inhibition at 1000 µM was determined as 1.6% in data set [3], 0% in [5], 1.8% in data set [15] and 5.9% in data set [16]. Also, the inhibition at 500 µM is 0% in data set [4], 1.8% in [9], 0% in data set [10] and 3% in data set [14]. In addition, the inhibition at 2000 µM was found to be 0% in data set [6], 0% in [8], 4% in [11] and 6.1% in data set [12]. Also, in [20], the “growth inhibition (GI)” value is reported as “Non-Toxic”.

Take `CC(=O)OC[C@H]1O[C@@H](OC(C)=O)[C@H](NC(=O)Cc2ccc(F)cc2)[C@@H](OC(C)=O)[C@@H]1OC(C)=O`: the inhibition in [1] turned out to be 5.7%; in data set [2] it was 7.3%; in [22] it was 7.4%; in [7], 1.3%; in data set [23], 14.1%; in data set [13], 17.1%. For the same compound, the inhibition in data set [24] was determined as 14%; in data set [17], 61.1%; in data set [18], 45.6%; in [19], 5.9%; in data set [21] it was 4.3%. For the same compound, the inhibition at 1000 µM in [3] is 0%; in data set [5], 0%; in [15], 0%; in [16], 9.4%. Besides, the inhibition at 500 µM worked out at 0% in data set [4], 0% in data set [9], 0% in [10] and 11.8% in data set [14]. The inhibition at 2000 µM in data set [6], in [8], in data set [11] and in [12] was 0% in each case. In [20], the “growth inhibition (GI)” value is listed as “Non-Toxic”.
